What was measured:
[1] = tested on: Human peripheral blood mononuclear cells (PBMCs); test: Adhesion of serum proteins and monocyte activation induced by coated silicone; type: cell-based; conditions: dip-coated silicone, PBMCs 3 days; compared with native FA
Experimental: In order to determine the effect of coating implant materials with nitro fatty acids to reduce adsorption of adhesion molecules and monocyte activation, sterile silicone sheets were out in small pieces and coated with respective nirocarboxylic acid and the corresponding native fatty acids by dip coating. Uncoated silicone pieces served as controls. For each fatty acid two sets of silicone pieces were bathed in freshly drawn human serum for 1 hour at 37° C., and another two sets were bathed in saline solutions. One set of both coated and uncoated pieces was analyzed immediately for adhesion proteins and the other set was placed in 96-well plates after rinsing the silicone pieces. Human peripheral blood mononuclear cells (PBMCs), isolated from three healthy subjects, were added to each well. Wells were incubated for 3 days under standard conditions. Culture supernatants were assayed for IL-1beta, IL-6, IL-8, and chemoattractant protein 1 (MCP-1) levels at the start and end of experiments.
Before analyzing the silicone pieces for protein adsorption, they were bathed in saline for 5 minutes. Thereafter, one side was rinsed with saline as performed for both sides in the set used for culturing. There was marked adsorption of fibrinogen and […] C5b-9 on the uncoated silicone. […] No protein was found on the surface of the nitro fatty acid-coated sample that was rinsed, thus, indicating the weak adherence of serum proteins.

human dermal fibroblasts = test: Extra cellular matrix production (collagen-1) in response to TGF-β2 in dermal fibroblasts; type: cell-based; conditions: 10 and 50 μmol, TGF-β2 25 ng/ml, 48 hours; compared with native FA
Experimental: In order to determine whether PPRA gamma stimulation due to nitrated fatty acids plays a role in the inventive inhibition of an aggressive healing pattern to an irritating stimulus, human dermal fibroblasts were investigated. A dominant-negative PPAR gamma mutant (L466A) cell clone was generated by polymerase chain reaction-based site-directed mutagenesis. Presence of PPAR gamma or absence was investigated using a PPAR gamma antibody reaction which was determined using an enhanced chemiluminescence detection system. Furthermore, one cell series was incubated with a selective irreversible PPAR gamma ligand (GW9662, 1 μmol), which effectively blocks PPAR gamma receptors.
Sequential cultivation of human dermal fibroblasts was performed in EMEM containing 5 mM glucose supplemented with 10% FCS under standard cultivation conditions. Cells were allowed to grow to confluence in a 96-well plate. Wild-type fibroblasts and PPAR gamma deficient fibroblasts were investigated by a set-up of 2×10 sample sets comprising: (1) blank control; (2) stimulation control; (3) preincubation with the PPAR gamma antagonist GW9662 (Cayman Chemical); (4) preincubation with the PPAR agonist troglitazone (25 μmol). In 2×4 sample sets, native fatty acids were added to the medium to achieve a final concentration of 10 and 50 μmol, respectively; in another 2×4 sets the nitrated fatty acids were added to the medium in the same concentration, while 2×2 sets served as controls. In 10 of the sets, TGF-β2 was added to the culture medium at a concentration of 25 ng/ml. Cultivation was continued for 48 hours and then processed in order to analyze collagen-1 as measured by enhanced chemiluminescence detection of immuncomplexes.

adult rats = test: Fibrogenesis after traumatic and thermal tissue damage in dermal wound healing in vivo; set-up: species or system rat; conditions: 100 micromol ethanolic solution on wound margins, 8 weeks, compared with native FA
Excerpt: In order to determine the effects of nitrated fatty acids on fibrogenesis in response to traumatic and thermal tissue damage, an in vivo rat model was investigated. Paravertebral scalpel incision (two on each side) of approximately 1 cm in length and a depth of 1 mm were made in 12 anesthetized adult rats (150-200 g) of either sex after disinfection. Bleeding was stopped by manual compression. The entire length of the wound margins of one incision at each side were additionally cauterized using a 3-mm ball electrode connected to a DRE ASG-120 electrosurgical generator. Wound margins of one side were then covered with a sterile ethanolic 0.9% saline solution, or with a sterile ethanolic solution of the fatty acids (100 micromol), or with a sterile ethanolic solution of the nitrated fatty acids (100 micromol) using a sterile brush. A 1×10 mm cotton string that was bathed in the ethanolic solution containing 0.9% saline, native fatty acid or nitrated fatty acids was placed upon the incision site that had been closed by manual adaptation. The adaptation result and the cotton strings were fixed by an adhesive film. The animals were housed and fed according to institutional standards. The wound films were carefully removed after 2 weeks. Animals were euthanized after 8 weeks. The skin wounds were harvested, including the epidermis, dermis, and subcutaneous loose tissue with the surrounding normal tissue. The removed tissues were fixed in formalin and then embedded in paraffin. The cutting plane was vertical to the longitudinal axis of the former incisions. Slices (4-6 μm) were stained with H&E and Masson trichrome staining to evaluate the amount and density of collagen.

[2] = tested on: human corneal fibroblasts; test: Model for fibrosis induction (3D corneal stroma, TGF-β1); type: cell-based; conditions: TGF-β1 over 7 days; compared with native FA
Experimental: Cornea injury may ultimately lead to a scar by way of corneal fibrosis, which is characterized by the presence of myofibroblasts and improper deposition of extracellular matrix components (ECM). An established in vitro model to study the healing response to trauma of corneal stroma was used. The in vitro 3-dimensional (3D) model of a corneal stroma was produced by human corneal fibroblasts stimulated with stable vitamin C which mimics corneal development. TGF-β1 was added to the medium over 7 days. […] There were no morphological changes of the myofibroblasts when treated with nitro fatty acids.
Note: key: 0: not superior to native FA (control); +: Superior to native FA; ++: superior to both; +++: outstanding effect.

Row | Molecule | Relative effect on serum protein adhesion and monocyte activation [1] | Relative effect on collagen-1 production in response to TGF-β2 (human dermal fibroblasts) | Relative effect on fibrogenesis (scar formation) in dermal wound healing (adult rats) | Relative efficacy in model for fibrosis induction [2]
1 | CCCCCCCC/C=C(\CCCCCCCC(=O)O)[N+](=O)[O-] [compound 9, 9-nitro-trans-oleic acid] | + | + | + | –
2 | 9,10-nitro-trans-oleic acid [compound 15] | + | + | + | +
3 | CCCCC/C=C(/C/C=C\C/C=C\C/C=C\C/C=C\CCC(=O)O)[N+](=O)[O-] [compound 5, 16-nitro-all-cis-4,7,10,13,16-docosapentaenoic acid] | + | + | 0 | –
4 | CCCCCC/C=C(\CCCCCCCC(=O)O)[N+](=O)[O-] [compound 16, 9-nitro-9-trans-hexadecenoic acid] | 0 | 0 | + | –
5 | CCCCCC=CCC=C(CC=CCC=CCCCC(=O)O)[N+](=O)[O-] [compound 14, 11-nitro-5,8,11,14-eicosatrienoic acid] | + | + | + | +
6 | CCCCCCCC/C(=C/CCCCCCCC(=O)O)[N+](=O)[O-] [compound 3, 10-nitro-cis-oleic acid] | ++ | ++ | ++ | +
7 | CC/C=C\C/C=C\C/C(=C/C/C=C\C/C=C\CCCCCC(=O)O)[N+](=O)[O-] [compound 7, 14-nitro-all-cis-7,10,13,16,19-docosapentaenoic acid] | 0 | + | 0 | –
8 | CCCCCC=CCC=C(CC=CC/C=C\CCCC(=O)O)[N+](=O)[O-] [compound 22, 11-nitro-cis-5,8,11,14-eicosatetraenoic acid] | + | ++ | ++ | ++
9 | CCCCCC/C=C(/CCCCCCCC(=O)O)[N+](=O)[O-] [compound 13] | + | + | + | –
10 | CCCCC/C=C(/C/C=C\C/C=C(/C/C=C\CCCC(=O)O)[N+](=O)[O-])[N+](=O)[O-] [compound 18, 8,14-nitro-cis-5,8,11,14-eicosatetraenoic acid] | ++ | + | + | –
11 | CCC=CCC=C(CC=CCC=CCC=CCC=C(CCC(=O)O)[N+](=O)[O-])[N+](=O)[O-] [compound 19, 4,16-nitro-docosahexaenoic acid] | + | + | + | –
12 | CCCCCCCC/C(=C\CCCCCCCC(=O)O)[N+](=O)[O-] [compound 12, 10-nitro-trans-oleic acid] | 0 | + | 0 | –
13 | 5-nitro-eicosatrienoic acid [compound 4] | + | + | + | –
14 | CCCCCCCCCCC/C=C(/CCCCC(=O)O)[N+](=O)[O-] [compound 21, 6-nitro-cis-6-octadecenoic acid] | 0 | ++ | ++ | –
15 | CC/C=C\C/C=C\C/C=C(/CCCCCCCC(=O)O)[N+](=O)[O-] [compound 6, 9-nitro-all-cis-9-12,15-octadecatrienoic acid] | + | ++ | ++ | ++
16 | CCCCCCCC/C=C(/CCCCCCCC(=O)O)[N+](=O)[O-] [compound 1, 9-nitro cis-oleic acid] | +++ | +++ | ++ | ++
17 | CCCCC/C=C\C/C(=C\CCCCCCCC(=O)O)[N+](=O)[O-] [compound 2, 10-nitro-cis-linoleic acid] | ++ | ++ | +++ | ++
18 | CCCCC=C(C=CC=CCCCCCCCC(=O)O)[N+](=O)[O-] [compound 11, 13-nitro-octadeca-9,11,13-trienoic acid] | + | + | + | +
19 | CCCCCCCC/C=C(/CCCCCCCCCCCCCC(=O)O)[N+](=O)[O-] [compound 8, 15-nitro-cis-15-tetracosenoic acid] | + | 0 | + | +
20 | 9,10-nitro-cis-oleic acid [compound 10] | ++ | ++ | ++ | ++
21 | CCCCCCCC/C=C(/CCCCCCCCCCCC(=O)O)[N+](=O)[O-] [compound 17, 13-nitro-cis-13-docosenoic acid] | + | + | + | –
